In patent US8067454B2, “Thio-substituted Anthra [1, 2-d] imidazole- 6, 11-dione derivatives, preparation method and application thereof” (National Defense Medical Center, priority 2010, dated 2011):

Experiments:
NCI-H460 = assay: NCI 60-cell drug screen, Non-Small Cell Lung Cancer NCI-H460; format: cell-based, human; settings: 1.00E−5 Molar
SN12C = assay: NCI 60-cell drug screen, Renal Cancer SN12C; format: cell-based, human; settings: 1.00E−5 Molar
A549/ATCC = assay: NCI 60-cell drug screen, Non-Small Cell Lung Cancer A549/ATCC; format: cell-based, human; settings: 1.00E−5 Molar
UACC-62 = assay: NCI 60-cell drug screen, Melanoma UACC-62; format: cell-based, human; settings: 1.00E−5 Molar
SK-MEL-2 = assay: NCI 60-cell drug screen, Melanoma SK-MEL-2; format: cell-based, human; settings: 1.00E−5 Molar
HCT-116 = assay: NCI 60-cell drug screen, Colon Cancer HCT-116; format: cell-based, human; settings: 1.00E−5 Molar
UACC-257 = assay: NCI 60-cell drug screen, Melanoma UACC-257; format: cell-based, human; settings: 1.00E−5 Molar
OVCAR-5 = assay: NCI 60-cell drug screen, Ovarian Cancer OVCAR-5; format: cell-based, human; settings: 1.00E−5 Molar
HOP-62 = assay: NCI 60-cell drug screen, Non-Small Cell Lung Cancer HOP-62; format: cell-based, human; settings: 1.00E−5 Molar
HL-60(TB) = assay: NCI 60-cell drug screen, Leukemia HL-60(TB); format: cell-based, human; settings: 1.00E−5 Molar
K-562 = assay: NCI 60-cell drug screen, Leukemia K-562; format: cell-based, human; settings: 1.00E−5 Molar
NCI-H522 = assay: NCI 60-cell drug screen, Non-Small Cell Lung Cancer NCI-H522; format: cell-based, human; settings: 1.00E−5 Molar
IGROV1 = assay: NCI 60-cell drug screen, Ovarian Cancer IGROV1; format: cell-based, human; settings: 1.00E−5 Molar
SK-MEL-5 = assay: NCI 60-cell drug screen, Melanoma SK-MEL-5; format: cell-based, human; settings: 1.00E−5 Molar
PC-3 = assay: NCI 60-cell drug screen, Prostate Cancer PC-3; format: cell-based, human; settings: 1.00E−5 Molar
A498 = assay: NCI 60-cell drug screen, Renal Cancer A498; format: cell-based, human; settings: 1.00E−5 Molar
NCI-H226 = assay: NCI 60-cell drug screen, Non-Small Cell Lung Cancer NCI-H226; format: cell-based, human; settings: 1.00E−5 Molar
RPMI-8226 = assay: NCI 60-cell drug screen, Leukemia RPMI-8226; format: cell-based, human; settings: 1.00E−5 Molar
NCI-H322M = assay: NCI 60-cell drug screen, Non-Small Cell Lung Cancer NCI-H322M; format: cell-based, human; settings: 1.00E−5 Molar
RXF 393 = assay: NCI 60-cell drug screen, Renal Cancer RXF 393; format: cell-based, human; settings: 1.00E−5 Molar
EKVX = assay: NCI 60-cell drug screen, Non-Small Cell Lung Cancer EKVX; format: cell-based, human; settings: 1.00E−5 Molar
NCI/ADR-RES = assay: NCI 60-cell drug screen, Ovarian Cancer NCI/ADR-RES; format: cell-based, human; settings: 1.00E−5 Molar
Experimental: In brief, cellular protein levels were determined after 48 hours of drug exposure by sulforhodamine B colorimetry. Through the use of a time 0 cell control, the cell growth can be determined for each cell line thus allowing calculations of the 50% growth inhibitory concentration (GI50), the total growth inhibition (TGI), and the 50% lethal concentration (LC50). Comparison to plates not exposed to drug permits determination of concentration and times of exposure conferring 50% net growth inhibition (GI50), TGI, and 50% cell kill (LC50).
From the data analysis it follows that approximately 95% of the actives (potent anticancer drugs) from the 60 cell line screen can be identified. By these criteria, 6 compounds (each with its certification number, refer to Table 2) of the invention were reported that having anticancer activity.
The screening system in United State National Cancer Institute (NCI) consists of 60 kinds of different human cancer cells, which can be used to assay the growth-inhibiting ability or cell toxicity of a compound against various cancer and tumor at a certain concentration.
NCI had selected 6 compounds f1-0, f1-1, f3-1, f1-11, f1-2 and f1-15 as test compounds (Table 2). Among these compounds, compound f1-1 was effective against renal cancer cell strain CAKI-1, and could achieve an inhibition effect on the growth of said cancer cell up to −8.01. Compound f1-11 could achieve inhibiting effects against leukemia cell line CCRF-CEM and RPMI-8226, up to −15.39 and −60.17, respectively. Compound f1-2 was effective against central nervous system cancer cell line SNB-75, and could achieve an effect of inhibiting said cancer cell growth up to −9.55. Compound f1-15 was effective against leukemia (blood cancer) cell line K-562, MOLT-4, and RPMI-8226, and could achieve effects of inhibiting said cancer cells growth up to −31.59, −2.90 and −13.69, respectively. Further, compound f1-15 was effective also against renal cancer cell line CAKI-1, and could achieve an effect of inhibiting said cancer cell growth up to −14.89.

SNB-75 = assay: NCI 60-cell drug screen, CNS Cancer SNB-75; format: cell-based, human; settings: 1.00E−5 Molar
ACHN = assay: NCI 60-cell drug screen, Renal Cancer ACHN; format: cell-based, human; settings: 1.00E−5 Molar
BT-549 = assay: NCI 60-cell drug screen, Breast Cancer BT-549; format: cell-based, human; settings: 1.00E−5 Molar
SNB-19 = assay: NCI 60-cell drug screen, CNS Cancer SNB-19; format: cell-based, human; settings: 1.00E−5 Molar
SF-539 = assay: NCI 60-cell drug screen, CNS Cancer SF-539; format: cell-based, human; settings: 1.00E−5 Molar
NCI-H23 = assay: NCI 60-cell drug screen, Non-Small Cell Lung Cancer NCI-H23; format: cell-based, human; settings: 1.00E−5 Molar
TK-10 = assay: NCI 60-cell drug screen, Renal Cancer TK-10; format: cell-based, human; settings: 1.00E−5 Molar
GBM8901 = assay: MTT assay, GBM8901 tumor cell; settings: for Cell survival rate (%) GBM8901: concentration 10 μM, tumor cell
SK-MEL-28 = assay: NCI 60-cell drug screen, Melanoma SK-MEL-28; format: cell-based, human; settings: 1.00E−5 Molar
COLO 205 = assay: NCI 60-cell drug screen, Colon Cancer COLO 205; format: cell-based, human; settings: 1.00E−5 Molar
CCRF-CEM = assay: NCI 60-cell drug screen, Leukemia CCRF-CEM; format: cell-based, human; settings: 1.00E−5 Molar
LOX IMVI = assay: NCI 60-cell drug screen, Melanoma LOX IMVI; format: cell-based, human; settings: 1.00E−5 Molar
SW-620 = assay: NCI 60-cell drug screen, Colon Cancer SW-620; format: cell-based, human; settings: 1.00E−5 Molar
KM12 = assay: NCI 60-cell drug screen, Colon Cancer KM12; format: cell-based, human; settings: 1.00E−5 Molar
HOP-92 = assay: NCI 60-cell drug screen, Non-Small Cell Lung Cancer HOP-92; format: cell-based, human; settings: 1.00E−5 Molar
OVCAR-4 = assay: NCI 60-cell drug screen, Ovarian Cancer OVCAR-4; format: cell-based, human; settings: 1.00E−5 Molar
SF-268 = assay: NCI 60-cell drug screen, CNS Cancer SF-268; format: cell-based, human; settings: 1.00E−5 Molar

CN(C)CCCSc1nc2ccc3c(c2[nH]1)C(=O)c1ccccc1C3=O [f1-15, 2-(3-(dimethylamino)propylthio)-1H-anthra[1,2-d]imidazole-6,11-dione]
Growth Percent, NCI-H460 (NCI-H460): 23.20%
Growth Percent, SN12C (SN12C): 37.66%
Growth Percent, A549/ATCC (A549/ATCC): 51.59%
Growth Percent, UACC-62 (UACC-62): 75.39%
Growth Percent, SK-MEL-2 (SK-MEL-2): 80.03%
Growth Percent, HCT-116 (HCT-116): 27.58%
Growth Percent, UACC-257 (UACC-257): 114.50%
Growth Percent, OVCAR-5 (OVCAR-5): 87.88%
Growth Percent, HOP-62 (HOP-62): 51.96%
Growth Percent, HL-60(TB) (HL-60(TB)): 12.74%
Growth Percent, K-562 (K-562): −31.59%
Growth Percent, NCI-H522 (NCI-H522): 69.28%
Growth Percent, IGROV1 (IGROV1): 30.89%
Growth Percent, SK-MEL-5 (SK-MEL-5): 62.55%
Growth Percent, PC-3 (PC-3): 36.71%
Growth Percent, A498 (A498): 76.16%
Growth Percent, NCI-H226 (NCI-H226): 74.10%
Growth Percent, RPMI-8226 (RPMI-8226): −13.69%
Growth Percent, NCI-H322M (NCI-H322M): 70.75%
Growth Percent, RXF 393 (RXF 393): 38.40%
Growth Percent, EKVX (EKVX): 65.23%
Growth Percent, NCI/ADR-RES (NCI/ADR-RES): 54.32%
Growth Percent, SNB-75 (SNB-75): 50.54%
Growth Percent, ACHN (ACHN): 24.30%
Growth Percent, BT-549 (BT-549): 75.75%
Growth Percent, SNB-19 (SNB-19): 79.67%
Growth Percent, SF-539 (SF-539): 57.50%
Growth Percent, NCI-H23 (NCI-H23): 53.83%
Growth Percent, TK-10 (TK-10): 31.68%
Cell survival rate (%) GBM8901 (GBM8901): 63 ± 4%
Growth Percent, SK-MEL-28 (SK-MEL-28): 102.07%
Growth Percent, COLO 205 (COLO 205): 62.01%
Growth Percent, CCRF-CEM (CCRF-CEM): 8.49%
Growth Percent, LOX IMVI (LOX IMVI): 28.57%
Growth Percent, SW-620 (SW-620): 26.35%
Growth Percent, KM12 (KM12): 20.36%
Growth Percent, HOP-92 (HOP-92): 15.99%
Growth Percent, OVCAR-4 (OVCAR-4): 29.72%
Growth Percent, SF-268 (SF-268): 53.13%

O=C1c2ccccc2C(=O)c2c1ccc1nc3n(c21)CCS3 [f3-1, 2-(2-N-ethylthio)-1H-anthra[1,2-d]imidazole-6,11-dione]
Growth Percent, NCI-H460 (NCI-H460): 59.46%
Growth Percent, SN12C (SN12C): 74.93%
Growth Percent, A549/ATCC (A549/ATCC): 81.15%
Growth Percent, UACC-62 (UACC-62): 73.06%
Growth Percent, SK-MEL-2 (SK-MEL-2): 99.88%
Growth Percent, HCT-116 (HCT-116): 68.43%
Growth Percent, UACC-257 (UACC-257): 80.59%
Growth Percent, OVCAR-5 (OVCAR-5): 105.31%
Growth Percent, HOP-62 (HOP-62): 85.26%
Growth Percent, HL-60(TB) (HL-60(TB)): 78.84%
Growth Percent, K-562 (K-562): 78.71%
Growth Percent, NCI-H522 (NCI-H522): 80.62%
Growth Percent, IGROV1 (IGROV1): 62.31%
Growth Percent, SK-MEL-5 (SK-MEL-5): 65.88%
Growth Percent, PC-3 (PC-3): 93.92%
Growth Percent, A498 (A498): 73.67%
Growth Percent, NCI-H226 (NCI-H226): 80.53%
Growth Percent, RPMI-8226 (RPMI-8226): 71.65%
Growth Percent, NCI-H322M (NCI-H322M): 72.06%
Growth Percent, RXF 393 (RXF 393): 46.50%
Growth Percent, EKVX (EKVX): 35.80%
Growth Percent, NCI/ADR-RES (NCI/ADR-RES): 84.08%
Growth Percent, SNB-75 (SNB-75): 95.57%
Growth Percent, ACHN (ACHN): 59.35%
Growth Percent, BT-549 (BT-549): 87.90%
Growth Percent, SNB-19 (SNB-19): 74.47%
Growth Percent, SF-539 (SF-539): 74.06%
Growth Percent, NCI-H23 (NCI-H23): 84.29%
Growth Percent, TK-10 (TK-10): 58.78%
Cell survival rate (%) GBM8901 (GBM8901): 37 ± 4%
inhibitory effect against tumor cell GBM8901 (GBM8901; survival rate less than 80%): exhibited inhibitory effect against tumor cell GBM8901
Growth Percent, SK-MEL-28 (SK-MEL-28): 109.36%
Growth Percent, COLO 205 (COLO 205): 95.22%
Growth Percent, CCRF-CEM (CCRF-CEM): 66.81%
Growth Percent, LOX IMVI (LOX IMVI): 65.93%
Growth Percent, SW-620 (SW-620): 69.29%
Growth Percent, KM12 (KM12): 84.88%
Growth Percent, HOP-92 (HOP-92): 88.67%
Growth Percent, OVCAR-4 (OVCAR-4): 89.29%
Growth Percent, SF-268 (SF-268): 56.15%
